Source: patent EP4810038A1, “METHOD FOR TREATING ALK-POSITIVE OR ROS1-POSITIVE NON-SMALL CELL LUNG CANCER” (Shenzhen TargetRx Co., Ltd., priority 2023, dated 2025)

Tests used:
[1] = system: Ba/F3 (SLC34A2-ROS1 G2032R) cell line; test: Anti-tumor effect in subcutaneous transplanted Ba/F3 (SLC34A2-ROS1 G2032R) model; type: in vivo, NOD-SCID mice; settings: 100 mg/kg p.o. once daily; 21st day after administration
Excerpt: Housing environment: SPF grade.
Environmental conditions of the housing room of the laboratory animals: All the laboratory animals were housed in individually ventilated cages with constant temperature and constant humidity. […] The animals were continuously provided with cobalt-60 irradiated complete pelleted mouse feed with unlimited free access. The animals drank tap water (used after being autoclaved), which was provided continuously from water bottles, allowing for free access. The cages for raising the mice were polysulfone mice cages, which were autoclaved before use, and measured 325 mm × 210 mm × 180 mm. The bedding was autoclaved corn cobs. Each cage contained 5 animals. The cage cards were marked with the IACUC approval number, experiment number, start time of the experiment, project leader, experimenters, source of the animals, group, and animal number. The laboratory animals were marked with ear tags or ear labels.
The Ba/F3 (SLC34A2-ROS1 G2032R) cells in the exponential growth phase were collected, resuspended in PBS to a suitable concentration, and then subcutaneously inoculated into nude mice for tumor formation.
Assay method: Female NOD/SCID mice were subcutaneously inoculated with 2×10^6 Ba/F3 (SLC34A2-ROS1 G2032R) cells on the right side to establish a subcutaneous tumor transplantation model. […] The mice were administered orally via gavage once daily. The efficacy was evaluated based on the relative tumor growth inhibition rate (TGI), and the safety was evaluated based on the changes in the body weight and mortality of the animals.
All the procedures, including drug administration, tumor measurement, weight measurement, etc., were performed in a biosafety cabinet or on a clean bench.
The relative tumor growth rate (T/C%) was the percentage value of the relative tumor volume between a treatment group and the control group at a certain time point, or the percentage value of the tumor weight between a treatment group and the control group. The calculation formula was: T/C% = TRTV / CRTV × 100% (TRTV: the average RTV of the treatment group; CRTV: the average RTV of the solvent control group; RTV = Vt / V0, wherein V0 is the tumor volume of the animal at the time of grouping, and Vt is the tumor volume of the animal after treatment); or T/C% = TTW / CTW × 100% (TTW: the average tumor weight at the end of the assay in the treatment group; CTW: the average tumor weight at the end of the assay in the solvent control group).
Statistical analysis: To compare the tumor volume on a given day across the different treatment groups, we first used the Bartlett's test to verify the assumption of homogeneity of variance among all the groups. When the p-value of the Bartlett's test was not less than 0.05, one-way ANOVA was used to test whether the means of all the groups were equal. If the p-value of the one-way ANOVA was less than 0.05, we would use the Tukey's HSD test for the pairwise comparisons between all the groups, or use the Dunnett's test for a pairwise comparison between each treatment group and the control group. When the p-value of the Bartlett's test was less than 0.05, the Kruskal-Wallis test was used to test whether the medians of all the groups were equal. […]

[2] = 100 mg of lorlatinib, GM (%CV), cited from earlier work

## C[C@@H](Oc1cc(-c2cnn(C3CCNCC3)c2)cnc1N)c1c(Cl)ccc(F)c1Cl [crizotinib, reference compound]
[1]
  average tumor volume: 1651.66 mm^3

## C[C@H]1Oc2cc(cnc2N)-c2c(nn(C)c2C#N)CN(C)C(=O)c2ccc(F)cc21 [lorlatinib]
[2]; Multiple administrations
  AR: 0.718(55)[11]
  AUC0-τ: 5946(46)[11] h*ng/ mL
  Cmax, SS: 644.8(32)[11] ng/mL
[2]; Single administration
  AUC(0-inf): 9590(11)[7] h*ng/ mL
  Cmax: 907.2(24) [7] ng/mL
  T1/2: 20.0(22)[7] hour
